In patent US10487046B1, “Dihydroxytyrosol hexamethylene-1,6-dicarbamate having antioxidant activity and a method of preparing the same” (SHAANXI UNIVERSITY OF SCIENCE AND TECHNOLOGY, priority 2019, dated 2019):

Experiment: DPPH Radical Scavenging Activity Assay
Type: biochemical
Settings: for Scavenging Activity (%) (n = 3): DPPH 0.2×10^−4 mol/L in methanol, 30 minutes, 517 nm
Description: DPPH Radical Scavenging Activity Assay 2,2-Diphenyl-1-picryl hydrazyl (DPPH) is an organic compound composed of a stable organic radical. In the DPPH molecule, due to the presence of multiple electron-withdrawing —NO2 and large it bonds of the benzene ring, nitrogen free radical is stabilized. Its methanol solution is purple and has a maximum absorption peak at 517 nm. After the addition of an antioxidant, DPPH captures an electron to be paired with the free electron, and the purple fades and turns into a yellow substance. The absorption at 517 nm disappears, and the degree of fading is quantitatively related to the number of electrons it captures. Based on this principle, a spectrophotometer is used to detect the change of the absorbance of the DPPH radical and the sample solution, and the ability of the sample to provide hydrogen atoms and scavenge free radicals can be measured. (a) Preparation of DPPH solution: measuring exact amount of 2,2-diphenyl-1-picryl hydrazyl (DPPH) and dissolving in methanol to prepare a 0.2×10^−4 mol/L DPPH solution, stored at 0° C. in dark. (b) Preparation of sample solutions: Vc (vitamin C, positive control), dihydroxytyrosol hexamethylene-1,6-dicarbamate, and hydroxytyrosol (control) were dissolved in methanol and diluted in a concentration gradient. Measuring the scavenging activity of the sample solutions: 2 mL of the sample solutions (table 1) at each concentration gradient was taken, 2 mL 0.2×10^−4 mol/L DPPH solution was added, the mixture was mixed and reacted at room temperature in dark for 30 minutes, and methanol was then added to adjust final volume. The absorbance Ai was measured at 517 nm. 2 mL control solution and 2 mL methanol were mixed, and the absorbance Aj was measured. 2 mL DPPH solution and 2 mL methanol were mixed, and the absorbance Ao was measured. (d) The scavenging activity of the sample solution and control solutions is calculated according to the following calculation formula and shown in Table 3 and FIG. 3. Scavenging activity (%)=100×[1−(Ai−Aj)/Ao]

SMILES: O=C(NCCCCCCNC(=O)OCCc1ccc(O)c(O)c1)OCCc1ccc(O)c(O)c1 [A, dihydroxytyrosol hexamethylene-1,6-dicarbamate]
- Scavenging Activity (%) (n = 3) (1.76 ppm): 19.87%
- DPPH radical scavenging activity (in words) (1.76 to 915.20 ppm): obvious DPPH radical scavenging activity in a concentration dependent manner
- Scavenging Activity (%) (n = 3) (8.80 ppm): 23.68%
- Scavenging Activity (%) (n = 3) (21.12 ppm): 37.02%
- Scavenging Activity (%) (n = 3) (42.24 ppm): 68.43%
- Scavenging Activity (%) (n = 3) (79.20 ppm): 76.52%
- Scavenging Activity (%) (n = 3) (112.64 ppm): 86.33%
- Scavenging Activity (%) (n = 3) (281.60 ppm): 91.48%
- Scavenging Activity (%) (n = 3) (492.80 ppm): 95.31%
- Scavenging Activity (%) (n = 3) (792.00 ppm): 96.66%
- Scavenging Activity (%) (n = 3) (915.20 ppm): 97.14%
- DPPH radical scavenging activity compared with hydroxytyrosol (B) (at same concentration): better DPPH radical scavenging activity than hydroxytyrosol (B)

SMILES: OCCc1ccc(O)c(O)c1 [B, hydroxytyrosol]
- Scavenging Activity (%) (n = 3) (1.76 ppm): 8.69%
- Scavenging Activity (%) (n = 3) (8.80 ppm): 10.97%
- Scavenging Activity (%) (n = 3) (21.12 ppm): 18.10%
- Scavenging Activity (%) (n = 3) (42.24 ppm): 28.89%
- Scavenging Activity (%) (n = 3) (79.20 ppm): 41.44%
- Scavenging Activity (%) (n = 3) (112.64 ppm): 45.83%
- Scavenging Activity (%) (n = 3) (281.60 ppm): 60.58%
- Scavenging Activity (%) (n = 3) (492.80 ppm): 72.81%
- Scavenging Activity (%) (n = 3) (792.00 ppm): 76.35%
- Scavenging Activity (%) (n = 3) (915.20 ppm): 80.61%

SMILES: O=C1O[C@H]([C@@H](O)CO)C(O)=C1O [Vc, Vitamin C]
- Scavenging Activity (%) (n = 3) (1.76 ppm): 21.35%
- Scavenging Activity (%) (n = 3) (8.80 ppm): 30.80%
- Scavenging Activity (%) (n = 3) (21.12 ppm): 87.03%
- Scavenging Activity (%) (n = 3) (42.24 ppm): 95.44%
- Scavenging Activity (%) (n = 3) (79.20 ppm): 96.06%
- Scavenging Activity (%) (n = 3) (112.64 ppm): 97.88%
- Scavenging Activity (%) (n = 3) (281.60 ppm): 98.41%
- Scavenging Activity (%) (n = 3) (492.80 ppm): 99.04%
- Scavenging Activity (%) (n = 3) (792.00 ppm): 99.42%
- Scavenging Activity (%) (n = 3) (915.20 ppm): 99.16%
